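Test compounds were applied to cells in 96-well plates for 48 hours at 5 doses. GI50 marks 50% less growth. The concentration for full growth arrest is given as TGI.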
Assays:
Test in all cases: NCI anticancer screen, dose series, 48 h
UO-31 renal = tested on: UO-31 renal
NCI-H460 lung = tested on: NCI-H460 lung
DU-145 prostate = tested on: DU-145 prostate
NCI-H522 lung = tested on: NCI-H522 lung
SNB-75 CNS = tested on: SNB-75 CNS
SK-MEL-5 melanoma = tested on: SK-MEL-5 melanoma
BT-549 breast = tested on: BT-549 breast
SW-620 colon = tested on: SW-620 colon
XF 498 CNS = tested on: XF 498 CNS
M19-MEL melanoma = tested on: M19-MEL melanoma

| SMILES | GI50 (UO-31 renal) [nM] | TGI (UO-31 renal) [µM] | GI50 (NCI-H460 lung) [µM] | TGI (NCI-H460 lung) [µM] | GI50 (DU-145 prostate) [µM] | TGI (DU-145 prostate) [µM] | GI50 (NCI-H522 lung) [µM] | TGI (NCI-H522 lung) [µM] | GI50 (SNB-75 CNS) [µM] | TGI (SNB-75 CNS) [µM] | GI50 (SK-MEL-5 melanoma) [µM] | TGI (SK-MEL-5 melanoma) [µM] | GI50 (BT-549 breast) [µM] | TGI (BT-549 breast) [µM] | GI50 (SW-620 colon) [nM] | TGI (SW-620 colon) [µM] | TGI (XF 498 CNS) [µM] | TGI (M19-MEL melanoma) [µM] |
| --- | --- | --- | --- | --- | --- | --- | --- | --- | --- | --- | --- | --- | --- | --- | --- | --- | --- | --- |
| CC(C)OC(=O)[C@H](C)NP(=O)(OC[C@H]1O[C@@H](n2ccc(=O)[nH]c2=O)[C@](C)(F)[C@@H]1O)Oc1ccccc1 (stereo not given in full) | > 100000 | > 100 | > 100 | > 100 | > 100 | > 100 | > 100 | > 100 | > 100 | > 100 | > 100 | > 100 | > 100 | > 100 | > 100000 | > 100 | – | – |
| [N-]=[N+]=N/C1=C/CCCCC(=O)C1 | – | > 100 | – | > 100 | – | – | – | > 100 | – | > 100 | – | > 100 | – | – | – | > 100 | > 100 | > 100 |
| COc1cc(/C=C/C(=O)c2cccc(-n3cc(-c4ccc(Cl)cc4)[nH]c3=O)c2)ccc1O | 1260 | > 37 | 6.43 | 21.7 | 2.6 | 7.55 | 1.81 | 11 | 2.36 | 10.2 | 1.88 | 5.22 | 2.89 | 10.9 | 2300 | 7.71 | – | – |
| COC(=O)c1s/c(=N\C(=S)N(C)C)n(-c2ccc(Cl)cc2)c1C(=O)OC | – | > 100 | – | > 100 | – | – | – | > 100 | – | > 10 | – | > 10 | – | – | – | > 100 | – | > 100 |
| COC(=O)C1=CN(CC2=CC(=O)C(C)=CC2=O)C=C(C(=O)OC)C1c1cccc(OC)c1 | 2650 | > 22.5 | 14.3 | 49.7 | 16.4 | 33.3 | 8.19 | > 31.9 | 31 | > 100 | 14.4 | 42.2 | 8.61 | 36.6 | 2200 | 4.81 | – | – |
| O=c1[nH]c2ccc(O)cc2o1 | – | > 100 | – | > 100 | – | > 100 | – | > 100 | – | > 100 | – | > 100 | – | > 100 | – | > 100 | – | – |
| C[Si](C)(C)/C(Br)=C\CCN1C(=O)CCC1=O | – | > 100 | – | > 100 | – | – | – | – | – | > 100 | – | > 100 | – | – | – | > 100 | > 100 | > 100 |
| CCN(Cc1ccc(F)cc1)c1ccc(CO)c(Br)c1 | 2890 | > 40.3 | 0.144 | 12.1 | 16.5 | > 53.1 | 13.8 | 30.2 | 6.28 | 39.8 | 3.42 | 19.6 | 12.2 | 29 | 475 | > 41.2 | – | – |
| COc1ccc(Cn2c(N)c(S(=O)(=O)c3ccc(Cl)cc3)c3nc(C#N)c(C#N)nc32)cc1 | 32600 | > 50 | 2.94 | > 50 | 20.2 | > 50 | 5.82 | > 50 | > 50 | > 50 | 49.4 | > 50 | 34.3 | > 50 | > 50000 | > 50 | – | – |

From PubChem BioAssay (NCI)
